Source: patent US20220324906A1 (Novo Nordisk A/S, priority 2014, published 2022)

Tests used:
eMuLV virus = experiment: Clearance of spiked eMuLV by chromatography with a caprylic acid wash; conditions: 30 min
Protocol: A cell line media containing a recombinant human Fab-fragment was filtered through a 0.22 μm and then spiked with eMuLV virus. The spiked media was applied to a column packed with Capto L media (GE-Healthcare). […] Process temperature was 15-25° C. […] A cell line media containing a recombinant human antibody (IgG1) was filtered through a 0.22 μm filter and spiked with eMuLV virus. The spiked media was loaded on a column packed with Protein A (Mab Select SuRe, Ge Healthcare). […] After pH had stabilised the washing continued for 30 min. After 3 other washings (equilibration buffer, 50 mmol/kg phosphate, 1 mol/kg NaCl and then equilibration buffer), the mAb was eluted from the column with a formate buffer, pH 3.5. […] The process temperature was 15-25° C. A cell line media containing a recombinant human antibody (IgG4) was filtered through a 0.22 μm filter and spiked with eMuLV virus. The spiked media was loaded on a column packed with Protein A (Mab Select SuRe, Ge Healthcare). […] After pH had stabilised the washing continued for 30 min. After 3 other washing (equilibration buffer, 50 mmol/kg phosphate, 1 mol/kg NaCl) and then equilibration buffer), the mAb was eluted from the column with a formate buffer, pH 3.5. […] The process temperature was 15-25° C. A cell line media containing a recombinant human antibody (IgG1) was filtered through a 0.22 μm filter and spiked with eMuLV virus. The spiked media was loaded on a column packed with Protein A (Mab Select SuRe, Ge Healthcare). […] After pH had stabilised the washing continued for 30 min. After 3 other washings (equilibration buffer, 50 mmol/kg phosphate, 1 mol/kg NaCl and then equilibration buffer), the mAb was eluted from the column with a formate buffer, pH 3.5. […] The process temperature was 2-8° C.

MuLV virus = experiment: Inactivation of MuLV with caprylic acid at different concentrations and pH; conditions: for Titre of MuLV virus after inactivation with caprylic acid: MuLV content 1.2 × 10^6; for Titre of MuLV after inactivating of MuLV with 60 mM caprylic acid: MuLV content 2.7 × 10^5
From the text: The inactivation of MuLV was investigated at different concentrations of caprylic and at different pH (Table 6).

[1] = 60 mM, pH 6.0, free caprylic acid 4.3 mM, 1 minute
[2] = 60 mM, pH 6.0, free caprylic acid 4.3 mM, 5 minutes
[3] = 60 mM, pH 6.0, free caprylic acid 4.3 mM, 10 minutes
[4] = 60 mM, pH 6.0, free caprylic acid 4.3 mM, 30 minutes

CCCCCCCC(=O)O [caprylic acid]
complete inactivation: inactivation of MuLV (MuLV virus; pH range 5.0 to 6.0, free caprylic acid at least about 4 mM, after 5 minutes)
0: Titre of MuLV virus after inactivation with caprylic acid (MuLV virus; 10 mM, pH 5.0, free caprylic acid 4.4 mM, 5 minutes) | Titre of MuLV virus after inactivation with caprylic acid (MuLV virus; 10 mM, pH 5.0, free caprylic acid 4.4 mM, 10 minutes) | Titre of MuLV virus after inactivation with caprylic acid (MuLV virus; 10 mM, pH 5.0, free caprylic acid 4.4 mM, 30 minutes) | Titre of MuLV virus after inactivation with caprylic acid (MuLV virus; 20 mM, pH 5.5, free caprylic acid 3.9 mM, 5 minutes) | Titre of MuLV virus after inactivation with caprylic acid (MuLV virus; 20 mM, pH 5.5, free caprylic acid 3.9 mM, 10 minutes) | Titre of MuLV virus after inactivation with caprylic acid (MuLV virus; 20 mM, pH 5.5, free caprylic acid 3.9 mM, 30 minutes) | Titre of MuLV after inactivating of MuLV with 60 mM caprylic acid (MuLV virus; 60 mM, pH 5.9, free caprylic acid 5.3 mM, 5 minutes) | Titre of MuLV after inactivating of MuLV with 60 mM caprylic acid (MuLV virus; 60 mM, pH 5.9, free caprylic acid 5.3 mM, 10 minutes) | Titre of MuLV after inactivating of MuLV with 60 mM caprylic acid (MuLV virus; 60 mM, pH 5.9, free caprylic acid 5.3 mM, 30 minutes) | Titre of MuLV virus after inactivation with caprylic acid (MuLV virus; [1]) | Titre of MuLV virus after inactivation with caprylic acid (MuLV virus; [2]) | Titre of MuLV after inactivating of MuLV with 60 mM caprylic acid (MuLV virus; [2]) | Titre of MuLV virus after inactivation with caprylic acid (MuLV virus; [3]) | Titre of MuLV after inactivating of MuLV with 60 mM caprylic acid (MuLV virus; [3]) | Titre of MuLV virus after inactivation with caprylic acid (MuLV virus; [4]) | Titre of MuLV after inactivating of MuLV with 60 mM caprylic acid (MuLV virus; [4]) | Titre of MuLV after inactivating of MuLV with 60 mM caprylic acid (MuLV virus; 60 mM, pH 6.1, free caprylic acid 3.5 mM, 1 minute) | Titre of MuLV after inactivating of MuLV with 60 mM caprylic acid (MuLV virus; 60 mM, pH 6.1, free caprylic acid 3.5 mM, 5 minutes) | Titre of MuLV after inactivating of MuLV with 60 mM caprylic acid (MuLV virus; 60 mM, pH 6.1, free caprylic acid 3.5 mM, 10 minutes) | Titre of MuLV after inactivating of MuLV with 60 mM caprylic acid (MuLV virus; 60 mM, pH 6.1, free caprylic acid 3.5 mM, 30 minutes) | Titre of MuLV after inactivating of MuLV with 60 mM caprylic acid (MuLV virus; 60 mM, pH 6.2, free caprylic acid 2.8 mM, 5 minutes) | Titre of MuLV after inactivating of MuLV with 60 mM caprylic acid (MuLV virus; 60 mM, pH 6.2, free caprylic acid 2.8 mM, 10 minutes) | Titre of MuLV after inactivating of MuLV with 60 mM caprylic acid (MuLV virus; 60 mM, pH 6.2, free caprylic acid 2.8 mM, 30 minutes) | Titre of MuLV after inactivating of MuLV with 60 mM caprylic acid (MuLV virus; 60 mM, pH 6.3, free caprylic acid 2.2 mM, 5 minutes) | Titre of MuLV after inactivating of MuLV with 60 mM caprylic acid (MuLV virus; 60 mM, pH 6.3, free caprylic acid 2.2 mM, 10 minutes) | Titre of MuLV after inactivating of MuLV with 60 mM caprylic acid (MuLV virus; 60 mM, pH 6.3, free caprylic acid 2.2 mM, 30 minutes)
>3.0: LRV (eMuLV virus; Example 2: IgG1, Protein A, 32 mmol/kg caprylate buffer pH 5.8 (2.9 mM free caprylic acid), 15-25° C.) | LRV (eMuLV virus; Example 4: IgG1, Protein A, 35 mmol/kg caprylate buffer pH 5.7 (3.9 mM free caprylic acid), 2-8° C.)
2.5: Titre of MuLV after inactivating of MuLV with 60 mM caprylic acid (MuLV virus; [1])
partial inactivation: inactivation of MuLV (MuLV virus; caprylic acid concentrations of about 2 mM, after 30 minutes)
more than 5.4 log 10: inactivation of MuLV (MuLV virus; 60 mM caprylic acid, pH range 5.9 to 6.3, within 5 minutes)
no inactivation was observed: inactivation of MuLV (MuLV virus; free caprylic acid below 1 mM)
>2.8: LRV (eMuLV virus; Example 3: IgG4, Protein A, 32 mmol/kg caprylate buffer pH 5.8 (2.9 mM free caprylic acid), 15-25° C.)
